# From patent US20250353891A1 (MEDIMMUNE LIMITED, priority 2022, published 2025)
# Starred links: 1 amine or outer side, 2 acyl side, 3 side chain; linkers in the order of their positions; H or OH if unused. Non-standard residues stand in square brackets, D forms with d. Residues, ends and D or L forms follow the SMILES beside them. Groups on a side chain read outwards from the residue. *: point of attachment. C20 diacid = O=C(O)CCCCCCCCCCCCCCCCCCC(=O)*; C18 diacid = O=C(O)CCCCCCCCCCCCCCCCC(=O)*; γGlu = O=C(O)[C@H](CCC(=O)[*:2])N[*:1]; αMeF = C[C@](N)(Cc1ccccc1)C(=O)O; AEEA = NCCOCCOCC(=O)O; Aib = CC(C)(N)C(=O)O
# Key:
# [1] = target: human glucagon receptor (hGCGR) (Homo sapiens, UniProt P47871); experiment: cAMP production (HTRF) in CHO cells expressing hGCGR; type: cell-based; design: expressed in transfected cells; settings: Table 6, peptides modified at position 17; cAMP in CHO hGCGR cells; geometric mean; read-out: hGluc-R EC50
# How it was run: (§1)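 Cells were resuspended in assay buffer at batch-optimized density, typically 1×10^5 cells/mL for hGLP-1R and 2×10^5 cells/mL for hGCGR. After 30 min incubation at room temperature with compound, cAMP was measured by two-step HTRF. EC50 values came from 4-parameter logistic fits of % Delta F.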
# [2] = target: human GLP-1 receptor (hGLP-1R) (Homo sapiens, UniProt P43220); experiment: cAMP production (HTRF) in CHO cells expressing hGLP-1R; type: cell-based; design: expressed in transfected cells; settings: for EC50: Table 6, peptides modified at position 17, cAMP in CHO hGLP-1R cells, geometric mean, read-out: hGLP-1R EC50; for % Relative Potency Ratio: Table 6, % GLP-1R activity relative to GLP-1 / % GlucR activity relative to glucagon
# How it was run: as §1
# human glucagon receptor (hGCGR), sequence (P47871 26-477): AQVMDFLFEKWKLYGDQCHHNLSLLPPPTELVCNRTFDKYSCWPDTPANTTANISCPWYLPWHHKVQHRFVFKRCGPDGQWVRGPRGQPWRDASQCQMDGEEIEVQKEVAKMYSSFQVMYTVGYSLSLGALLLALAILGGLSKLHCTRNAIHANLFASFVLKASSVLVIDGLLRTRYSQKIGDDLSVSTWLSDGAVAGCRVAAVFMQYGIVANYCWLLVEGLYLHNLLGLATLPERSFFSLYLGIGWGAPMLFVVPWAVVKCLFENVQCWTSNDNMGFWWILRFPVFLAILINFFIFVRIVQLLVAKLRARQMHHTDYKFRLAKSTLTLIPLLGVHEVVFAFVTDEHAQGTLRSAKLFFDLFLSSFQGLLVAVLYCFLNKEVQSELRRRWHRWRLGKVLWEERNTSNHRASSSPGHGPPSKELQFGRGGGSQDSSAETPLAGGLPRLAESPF
# human GLP-1 receptor (hGLP-1R), sequence (P43220 24-463): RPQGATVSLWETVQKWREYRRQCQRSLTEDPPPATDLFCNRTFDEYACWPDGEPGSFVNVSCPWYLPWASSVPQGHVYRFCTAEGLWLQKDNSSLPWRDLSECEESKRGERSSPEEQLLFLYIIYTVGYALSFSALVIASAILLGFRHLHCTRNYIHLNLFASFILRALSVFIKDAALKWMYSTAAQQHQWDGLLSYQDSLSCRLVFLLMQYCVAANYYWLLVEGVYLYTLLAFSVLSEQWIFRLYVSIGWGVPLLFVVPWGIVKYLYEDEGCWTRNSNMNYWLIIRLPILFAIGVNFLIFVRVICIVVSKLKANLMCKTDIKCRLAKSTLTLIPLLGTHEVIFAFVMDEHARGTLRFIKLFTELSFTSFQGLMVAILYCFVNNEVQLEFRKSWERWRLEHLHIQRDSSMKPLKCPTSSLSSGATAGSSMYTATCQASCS
Compound,EC50 [1] [nM],EC50 [2] [nM],% Relative Potency Ratio [2]
CC(C)C[C@H](NC(=O)[C@H](CC(C)C)NC(=O)[C@H](Cc1c[nH]c2ccccc12)NC(=O)[C@H](CCC(N)=O)NC(=O)[C@@H](NC(=O)[C@](C)(Cc1ccccc1)NC(=O)[C@H](CC(=O)O)NC(=O)[C@H](CCCNC(=N)N)NC(=O)[C@H](C)NC(=O)[C@H](CCCNC(=N)N)NC(=O)[C@H](CCCCNC(=O)COCCOCCNC(=O)COCCOCCNC(=O)CC[C@H](NC(=O)CCCCCCCCCCCCCCCCC(=O)O)C(=O)O)NC(=O)[C@@H](NC(=O)[C@H](CC(=O)O)NC(=O)[C@H](CC(C)C)NC(=O)[C@](C)(Cc1ccccc1)NC(=O)[C@H](CCCCN)NC(=O)[C@H](CO)NC(=O)[C@@H](NC(=O)[C@H](CC(=O)O)NC(=O)[C@H](CO)NC(=O)[C@@H](NC(=O)[C@](C)(Cc1ccccc1)NC(=O)[C@@H](NC(=O)CNC(=O)[C@H](CCC(N)=O)NC(=O)C(C)(C)NC(=O)[C@@H](N)Cc1c[nH]cn1)[C@@H](C)O)[C@@H](C)O)C(C)C)[C@@H](C)O)C(C)C)C(=O)N[C@@H](C)C(=O)NC(C)(C)C(=O)NCC(N)=O [Peptide 513] (H-H[Aib]QGT[αMeF]TSDVSK[αMeF]LDTK([AEEA-AEEA-γGlu-C18 diacid])RARD[αMeF]VQWLLA[Aib]G-NH2),1.34,0.0938,28.3
CC(C)C[C@H](NC(=O)[C@H](Cc1c[nH]c2ccccc12)NC(=O)[C@H](CCC(N)=O)NC(=O)[C@@H](NC(=O)[C@H](Cc1ccccc1)NC(=O)[C@H](CC(=O)O)NC(=O)[C@H](CCCNC(=N)N)NC(=O)[C@H](C)NC(=O)[C@H](C)NC(=O)[C@H](CCCCNC(=O)COCCOCCNC(=O)COCCOCCNC(=O)CC[C@H](NC(=O)CCCCCCCCCCCCCCCCC(=O)O)C(=O)O)NC(=O)[C@@H](NC(=O)[C@H](CC(=O)O)NC(=O)[C@H](CC(C)C)NC(=O)[C@](C)(Cc1ccccc1)NC(=O)[C@H](CCCCN)NC(=O)[C@H](CO)NC(=O)[C@@H](NC(=O)[C@H](CC(=O)O)NC(=O)[C@H](CO)NC(=O)[C@@H](NC(=O)[C@H](Cc1ccccc1)NC(=O)[C@@H](NC(=O)CNC(=O)[C@H](CCC(N)=O)NC(=O)C(C)(C)NC(=O)[C@@H](N)Cc1c[nH]cn1)[C@@H](C)O)[C@@H](C)O)C(C)C)[C@@H](C)O)C(C)C)C(=O)N[C@@H](CC(C)C)C(=O)N[C@@H](CCC(=O)O)C(=O)NC(C)(C)C(=O)NCC(N)=O [Peptide 514] (H-H[Aib]QGTFTSDVSK[αMeF]LDTK([AEEA-AEEA-γGlu-C18 diacid])AARDFVQWLLE[Aib]G-NH2; N-terminus assumed),1.37,0.0767,35.4
CC(C)C[C@H](NC(=O)[C@H](Cc1c[nH]c2ccccc12)NC(=O)[C@H](CCC(N)=O)NC(=O)[C@@H](NC(=O)[C@H](Cc1ccccc1)NC(=O)[C@H](CC(=O)O)NC(=O)[C@H](CCCNC(=N)N)NC(=O)[C@H](C)NC(=O)[C@H](C)NC(=O)[C@H](CCCCNC(=O)COCCOCCNC(=O)COCCOCCNC(=O)CC[C@H](NC(=O)CCCCCCCCCCCCCCCCCCC(=O)O)C(=O)O)NC(=O)[C@@H](NC(=O)[C@H](CC(=O)O)NC(=O)[C@H](CC(C)C)NC(=O)[C@](C)(Cc1ccccc1)NC(=O)[C@H](CCCCN)NC(=O)[C@H](CO)NC(=O)[C@@H](NC(=O)[C@H](CC(=O)O)NC(=O)[C@H](CO)NC(=O)[C@@H](NC(=O)[C@H](Cc1ccccc1)NC(=O)[C@@H](NC(=O)CNC(=O)[C@H](CCC(N)=O)NC(=O)C(C)(C)NC(=O)[C@@H](N)Cc1c[nH]cn1)[C@@H](C)O)[C@@H](C)O)C(C)C)[C@@H](C)O)C(C)C)C(=O)N[C@@H](CC(C)C)C(=O)N[C@@H](CCC(=O)O)C(=O)NC(C)(C)C(=O)NCC(N)=O [Peptide 515] (H-H[Aib]QGTFTSDVSK[αMeF]LDTK([AEEA-AEEA-γGlu-C20 diacid])AARDFVQWLLE[Aib]G-NH2; N-terminus assumed),2.66,0.297,17.7
